Laboratory results taken from PubChem BioAssay (NCI).
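Tested at 5 concentrations; 48 h exposure; 96-well plates; endpoints linearly interpolated, else capped at highest concentration. TGI marks complete inhibition of growth.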

Assays:
Experiment in all cases: NCI tumour cell line growth inhibition, 48 h
[1] = tested on: SNB-78 CNS
[2] = tested on: KM20L2 colon
[3] = tested on: CAKI-1 renal
[4] = tested on: M19-MEL melanoma
[5] = tested on: SN12C renal
[6] = tested on: HCT-15 colon
[7] = tested on: U251 CNS
[8] = tested on: SK-MEL-2 melanoma
[9] = tested on: HOP-62 NSCLC
[10] = tested on: RXF 393 renal
[11] = tested on: TK-10 renal
[12] = tested on: HCC-2998 colon
[13] = tested on: HCT-116 colon
[14] = tested on: SK-MEL-5 melanoma
[15] = tested on: DMS 114 small cell lung
[16] = tested on: K-562 leukemia
[17] = tested on: NCI-H23 lung
[18] = tested on: MALME-3M melanoma
[19] = tested on: SF-295 CNS
[20] = tested on: SNB-19 CNS
[21] = tested on: OVCAR-8 ovarian
[22] = tested on: EKVX NSCLC
[23] = tested on: NCI-H460 lung
[24] = tested on: HOP-18 NSCLC
[25] = tested on: RPMI-8226 leukemia
[26] = tested on: SW-620 colon
[27] = tested on: SF-539 CNS
[28] = tested on: OVCAR-5 ovarian
[29] = tested on: HT29 colon
[30] = tested on: MOLT-4 leukemia
[31] = tested on: IGROV1 ovarian
[32] = tested on: OVCAR-3 ovarian
[33] = tested on: SF-268 CNS
[34] = tested on: A549 NSCLC
[35] = tested on: LXFL 529 NSCLC
[36] = tested on: DMS 273 small cell lung
[37] = tested on: A498 renal
[38] = tested on: UO-31 renal
[39] = tested on: COLO 205 colon
[40] = tested on: ACHN renal
[41] = tested on: KM12 colon
[42] = tested on: SK-OV-3 ovarian
[43] = tested on: HL-60(TB) leukemia
[44] = tested on: OVCAR-4 ovarian
[45] = tested on: XF 498 CNS
[46] = tested on: SNB-75 CNS
[47] = tested on: NCI-H522 lung
[48] = tested on: UACC-62 melanoma
[49] = tested on: DLD-1 colon
[50] = tested on: CCRF-CEM leukemia
[51] = tested on: NCI-H226 lung
[52] = tested on: 786-0 renal
[53] = tested on: SR leukemia
[54] = tested on: M14 melanoma
[55] = tested on: HOP-92 NSCLC
[56] = tested on: UACC-257 melanoma
[57] = tested on: RXF-631 renal
[58] = tested on: LOX IMVI melanoma
[59] = tested on: SK-MEL-28 melanoma

In the case of `CC(C)(C)C1CCC(CI)(N=[N+]=[N-])CC1` (centres undefined), the TGI [1] is reported as > 100 µM, the TGI [2] is reported as > 100 µM and the TGI [3] is reported as > 100 µM. The TGI [4] was > 100 µM, the TGI [5] was > 100 µM and the TGI [6] was > 100 µM. The TGI [7] was > 100 µM, the TGI [8] was > 100 µM and the TGI [9] was > 100 µM. For the same molecule, the TGI [10] was > 100 µM, the TGI [11] was > 100 µM and the TGI [12] was > 100 µM. For the same molecule, the TGI [13] was > 100 µM, the TGI [14] was > 100 µM and the TGI [15] was > 100 µM. The TGI [16] was > 100 µM, the TGI [17] was > 100 µM and the TGI [18] was > 100 µM. For the same molecule, the TGI [19] was > 100 µM, the TGI [20] was > 100 µM and the TGI [21] was > 100 µM. The TGI [22] was > 100 µM, the TGI [23] was > 100 µM and the TGI [24] was > 100 µM. For the same molecule, the TGI [25] was > 100 µM, the TGI [26] was > 100 µM and the TGI [27] was > 100 µM. The TGI [28] was > 100 µM, the TGI [29] was > 100 µM and the TGI [30] was > 100 µM. For the same molecule, the TGI [31] was > 100 µM, the TGI [32] was > 100 µM and the TGI [33] was > 100 µM. For the same molecule, the TGI [34] was > 100 µM, the TGI [35] was > 100 µM and the TGI [36] was > 100 µM. The TGI [37] was > 100 µM, the TGI [38] was > 100 µM and the TGI [39] was > 100 µM. For the same molecule, the TGI [40] was > 100 µM, the TGI [41] was > 100 µM and the TGI [42] was > 100 µM. For the same molecule, the TGI [43] was > 100 µM, the TGI [44] was > 100 µM and the TGI [45] was > 100 µM. The TGI [46] was > 100 µM, the TGI [47] was > 100 µM and the TGI [48] was > 100 µM. For the same molecule, the TGI [49] was > 100 µM, the TGI [50] was > 100 µM and the TGI [51] was > 100 µM. For the same molecule, the TGI [52] was > 100 µM, the TGI [53] was > 100 µM and the TGI [54] was > 100 µM. The TGI [55] was > 100 µM and the TGI [56] was > 100 µM.
For `Cc1ccc(C)c(NC(=O)C(=O)CC(=O)c2cccc3ccccc23)c1`, the TGI [1] was > 100 µM, the TGI [2] was > 100 µM and the TGI [3] was > 100 µM. For the same molecule, the TGI [4] was > 100 µM, the TGI [5] was > 100 µM and the TGI [6] was > 100 µM. For the same molecule, the TGI [7] was > 100 µM, the TGI [8] was > 100 µM and the TGI [9] was > 100 µM. For the same molecule, the TGI [10] was > 100 µM, the TGI [11] was > 100 µM and the TGI [12] was > 100 µM. The TGI [13] was > 100 µM, the TGI [14] was > 100 µM and the TGI [15] was > 100 µM. For the same molecule, the TGI [16] was > 100 µM, the TGI [17] was > 100 µM and the TGI [18] was > 100 µM. The TGI [19] was > 100 µM, the TGI [20] was > 100 µM and the TGI [21] was > 100 µM. The TGI [57] was > 100 µM, the TGI [58] was > 100 µM and the TGI [22] was > 100 µM. The TGI [23] was > 100 µM, the TGI [59] was > 100 µM and the TGI [24] was > 100 µM. For the same molecule, the TGI [25] was > 100 µM, the TGI [26] was > 100 µM and the TGI [27] was > 100 µM. For the same molecule, the TGI [28] was > 100 µM, the TGI [29] was > 100 µM and the TGI [30] was > 100 µM. The TGI [31] was > 100 µM, the TGI [32] was > 100 µM and the TGI [33] was > 100 µM. For the same molecule, the TGI [34] was > 100 µM, the TGI [35] was > 100 µM and the TGI [36] was > 100 µM. The TGI [37] was > 100 µM, the TGI [38] was > 100 µM and the TGI [39] was > 100 µM. The TGI [40] was > 100 µM, the TGI [41] was > 100 µM and the TGI [42] was > 100 µM. The TGI [43] was > 100 µM, the TGI [44] was > 100 µM and the TGI [46] was > 100 µM. For the same molecule, the TGI [47] was > 100 µM, the TGI [48] was > 100 µM and the TGI [49] was > 100 µM. For the same molecule, the TGI [50] was > 100 µM, the TGI [51] was > 100 µM and the TGI [52] was > 100 µM. For the same molecule, the TGI [53] was > 100 µM, the TGI [54] was > 100 µM and the TGI [55] was > 100 µM. The TGI [56] was > 100 µM.
In the case of `O=S1c2ccccc2N=C(c2ccc3ccccc3c2)CC1c1ccccc1F` (centres undefined), the TGI [2] is reported as > 100 µM, the TGI [3] is reported as > 100 µM and the TGI [4] is reported as > 100 µM. The TGI [5] was > 100 µM, the TGI [6] was > 100 µM and the TGI [7] was > 100 µM. For the same molecule, the TGI [8] was > 100 µM, the TGI [9] was > 100 µM and the TGI [10] was > 100 µM. The TGI [11] was > 100 µM, the TGI [12] was > 100 µM and the TGI [14] was > 100 µM. The TGI [15] was > 100 µM, the TGI [16] was > 100 µM and the TGI [17] was > 100 µM. For the same molecule, the TGI [18] was > 100 µM, the TGI [19] was > 100 µM and the TGI [20] was > 100 µM. For the same molecule, the TGI [21] was > 100 µM, the TGI [57] was > 100 µM and the TGI [58] was > 100 µM. The TGI [22] was > 100 µM, the TGI [23] was > 100 µM and the TGI [59] was > 100 µM. For the same molecule, the TGI [24] was > 100 µM, the TGI [25] was > 100 µM and the TGI [26] was > 100 µM. For the same molecule, the TGI [27] was > 100 µM, the TGI [28] was > 100 µM and the TGI [29] was > 100 µM. The TGI [30] was > 100 µM, the TGI [31] was > 100 µM and the TGI [32] was > 100 µM. The TGI [33] was > 100 µM, the TGI [34] was > 100 µM and the TGI [35] was > 100 µM. For the same molecule, the TGI [36] was > 100 µM, the TGI [37] was 79.7 µM and the TGI [38] was > 100 µM. For the same molecule, the TGI [39] was > 100 µM, the TGI [40] was > 100 µM and the TGI [41] was > 100 µM. For the same molecule, the TGI [42] was > 100 µM, the TGI [43] was > 100 µM and the TGI [44] was > 100 µM. For the same molecule, the TGI [45] was > 100 µM, the TGI [46] was 80.8 µM and the TGI [47] was > 100 µM. For the same molecule, the TGI [48] was > 100 µM, the TGI [49] was > 100 µM and the TGI [50] was > 100 µM. For the same molecule, the TGI [51] was > 100 µM, the TGI [52] was > 100 µM and the TGI [54] was > 100 µM. The TGI [56] was > 100 µM.
